Assay results from patent US12383545B1, “Treatment of migraine” (priority 2018, dated 2025).

System: ALT or AST
Assay: Study B: postbaseline hepatic laboratory parameters (ALT or AST, potential Hy's Law)
Format: in vivo, human
Settings: atogepant 60 mg QD or standard of care, safety population
Description: Cases of alanine aminotransferase/aspartate aminotransferase (ALT/AST) levels ≥3 times the upper limit of normal were reported for 2.4% of participants (n=13/531) treated with atogepant and 3.2% for standard-of-care (n=6/190). No cases of potential Hy's Law were reported. Table 24 provides postbaseline hepatic laboratory parameter values of clinical interest for the safety population.

C[C@@H]1[C@H](c2c(F)ccc(F)c2F)C[C@H](NC(=O)c2cnc3c(c2)C[C@@]2(C3)C(=O)Nc3ncccc32)C(=O)N1CC(F)(F)F [atogepant]
Potential Hy's Law (ALT or AST ≥ 3 × ULN and Bilirubin Total ≥ 2 × ULN and ALP < 2 × ULN), n/N1 (%): (0.0) %
ALT or AST ≥1 × ULN, n/N1 (%) (postbaseline): (21.1) %
ALT or AST ≥1.5 × ULN, n/N1 (%) (postbaseline): (8.7) %
ALT or AST ≥2 × ULN, n/N1 (%) (postbaseline): (4.9) %
ALT or AST ≥3 × ULN, n/N1 (%) (postbaseline): 2.4%
ALT or AST ≥5 × ULN, n/N1 (%) (postbaseline): (1.3) %
ALT or AST ≥10 × ULN, n/N1 (%) (postbaseline): (0.6) %
ALT or AST ≥20 × ULN, n/N1 (%) (postbaseline): (0.0) %
ALT or AST ≥3 × ULN, n/N1 (%) (postbaseline, listed as Atogepant): (2.4) %
